Results as given in article PMC7614683, “A small molecule PI3Kα activator for cardioprotection and neuroregeneration” (Nature, 2023).
Like-named read-outs stand apart in the source and are kept apart here.

Tests used:
Test in all cases: SelectScreen Z-LYTE kinase activity assay (SI Table 6)
Format in all cases: biochemical
[1] = target: protein kinases of the Z-LYTE panel (Homo sapiens, UniProt O75116)
In short: (§1)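 A counterscreen of 133 protein and 7 lipid kinases was run with one compound concentration, 1 μM 1938, in SelectScreen Adapta, Lantha or Z-LYTE assays.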

[2] = target: protein kinases of the Z-LYTE panel (Homo sapiens, UniProt P07333)
In short: as §1

[3] = target: protein kinases of the Z-LYTE panel (Homo sapiens, UniProt P07949, V804L)
In short: as §1

[4] = target: protein kinases of the Z-LYTE panel (Homo sapiens, UniProt P17252)
In short: as §1

[5] = target: protein kinases of the Z-LYTE panel (Homo sapiens, UniProt P24941)
In short: as §1

[6] = target: protein kinases of the Z-LYTE panel (Homo sapiens, UniProt P28482)
In short: as §1

[7] = target: protein kinases of the Z-LYTE panel (Homo sapiens, UniProt P51451)
In short: as §1

[8] = target: protein kinases of the Z-LYTE panel (Homo sapiens, UniProt P54756)
In short: as §1

[9] = target: T1, protein kinases of the Z-LYTE panel (Homo sapiens, UniProt P54760)
T1 sequence (P54760 16-987): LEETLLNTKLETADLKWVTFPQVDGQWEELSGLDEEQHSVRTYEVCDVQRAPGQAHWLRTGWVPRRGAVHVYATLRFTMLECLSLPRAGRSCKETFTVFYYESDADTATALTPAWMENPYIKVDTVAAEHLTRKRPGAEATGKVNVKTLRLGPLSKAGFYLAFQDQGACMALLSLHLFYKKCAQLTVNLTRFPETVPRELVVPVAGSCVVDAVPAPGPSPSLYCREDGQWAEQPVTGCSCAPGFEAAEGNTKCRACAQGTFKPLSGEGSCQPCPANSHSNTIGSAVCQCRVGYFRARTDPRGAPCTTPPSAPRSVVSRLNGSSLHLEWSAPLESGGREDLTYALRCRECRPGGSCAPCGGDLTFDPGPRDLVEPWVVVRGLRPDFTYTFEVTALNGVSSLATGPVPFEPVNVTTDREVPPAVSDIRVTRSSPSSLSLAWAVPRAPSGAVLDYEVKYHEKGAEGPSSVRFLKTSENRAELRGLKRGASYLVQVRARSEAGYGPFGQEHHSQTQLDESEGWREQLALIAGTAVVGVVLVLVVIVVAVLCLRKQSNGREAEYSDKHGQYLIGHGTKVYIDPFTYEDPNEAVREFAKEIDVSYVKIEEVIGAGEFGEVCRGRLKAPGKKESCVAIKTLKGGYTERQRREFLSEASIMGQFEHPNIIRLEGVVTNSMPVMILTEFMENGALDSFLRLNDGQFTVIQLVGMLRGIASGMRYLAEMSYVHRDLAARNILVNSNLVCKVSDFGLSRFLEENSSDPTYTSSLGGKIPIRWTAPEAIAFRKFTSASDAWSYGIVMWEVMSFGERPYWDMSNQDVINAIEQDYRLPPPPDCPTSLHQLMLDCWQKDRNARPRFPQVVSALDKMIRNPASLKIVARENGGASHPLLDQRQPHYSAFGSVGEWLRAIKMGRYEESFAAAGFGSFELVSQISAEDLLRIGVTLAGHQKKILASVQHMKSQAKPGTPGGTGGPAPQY
In short: as §1

[10] = target: protein kinases of the Z-LYTE panel (Homo sapiens, UniProt Q04759)
In short: as §1

protein kinases of the Z-LYTE panel (Homo sapiens, UniProt P54756), sequence (P54756 25-1037): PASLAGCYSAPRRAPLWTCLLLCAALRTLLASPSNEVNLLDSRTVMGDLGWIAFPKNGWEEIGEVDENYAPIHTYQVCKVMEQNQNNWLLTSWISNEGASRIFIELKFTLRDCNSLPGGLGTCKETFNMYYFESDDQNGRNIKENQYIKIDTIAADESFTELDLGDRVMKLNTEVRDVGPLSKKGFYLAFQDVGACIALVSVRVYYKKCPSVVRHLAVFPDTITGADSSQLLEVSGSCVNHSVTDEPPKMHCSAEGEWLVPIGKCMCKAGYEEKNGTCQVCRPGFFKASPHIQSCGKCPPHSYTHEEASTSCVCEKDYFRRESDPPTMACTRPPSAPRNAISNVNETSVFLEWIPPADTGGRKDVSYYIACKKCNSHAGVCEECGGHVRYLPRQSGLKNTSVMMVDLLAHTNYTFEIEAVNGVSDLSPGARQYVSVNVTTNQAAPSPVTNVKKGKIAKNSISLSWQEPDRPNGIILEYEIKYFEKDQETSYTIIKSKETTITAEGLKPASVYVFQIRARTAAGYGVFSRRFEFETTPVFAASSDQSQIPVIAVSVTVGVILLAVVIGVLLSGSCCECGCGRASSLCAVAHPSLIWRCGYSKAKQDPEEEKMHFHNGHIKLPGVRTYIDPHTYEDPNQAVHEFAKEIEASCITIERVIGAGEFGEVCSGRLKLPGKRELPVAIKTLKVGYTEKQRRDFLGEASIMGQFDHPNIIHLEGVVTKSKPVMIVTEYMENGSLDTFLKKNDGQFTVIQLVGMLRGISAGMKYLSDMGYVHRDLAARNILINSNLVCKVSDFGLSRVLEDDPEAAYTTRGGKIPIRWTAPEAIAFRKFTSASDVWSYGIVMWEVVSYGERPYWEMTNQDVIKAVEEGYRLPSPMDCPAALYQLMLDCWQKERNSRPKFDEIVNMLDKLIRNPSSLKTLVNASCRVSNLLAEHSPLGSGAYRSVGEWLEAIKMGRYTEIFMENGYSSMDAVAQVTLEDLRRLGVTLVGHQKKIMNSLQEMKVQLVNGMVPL
protein kinases of the Z-LYTE panel (Homo sapiens, UniProt P28482), sequence (P28482 whole entry): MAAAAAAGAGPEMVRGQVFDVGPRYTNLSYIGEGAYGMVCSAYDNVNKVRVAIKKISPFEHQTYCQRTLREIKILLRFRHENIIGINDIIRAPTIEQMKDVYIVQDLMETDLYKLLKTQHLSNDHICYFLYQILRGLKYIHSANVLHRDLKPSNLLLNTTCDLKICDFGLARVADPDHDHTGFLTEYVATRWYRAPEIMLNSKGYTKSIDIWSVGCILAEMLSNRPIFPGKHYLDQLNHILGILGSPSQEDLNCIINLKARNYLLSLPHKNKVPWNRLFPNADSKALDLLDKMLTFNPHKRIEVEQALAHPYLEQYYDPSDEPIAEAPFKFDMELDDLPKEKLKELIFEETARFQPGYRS
protein kinases of the Z-LYTE panel (Homo sapiens, UniProt O75116), sequence (O75116 whole entry): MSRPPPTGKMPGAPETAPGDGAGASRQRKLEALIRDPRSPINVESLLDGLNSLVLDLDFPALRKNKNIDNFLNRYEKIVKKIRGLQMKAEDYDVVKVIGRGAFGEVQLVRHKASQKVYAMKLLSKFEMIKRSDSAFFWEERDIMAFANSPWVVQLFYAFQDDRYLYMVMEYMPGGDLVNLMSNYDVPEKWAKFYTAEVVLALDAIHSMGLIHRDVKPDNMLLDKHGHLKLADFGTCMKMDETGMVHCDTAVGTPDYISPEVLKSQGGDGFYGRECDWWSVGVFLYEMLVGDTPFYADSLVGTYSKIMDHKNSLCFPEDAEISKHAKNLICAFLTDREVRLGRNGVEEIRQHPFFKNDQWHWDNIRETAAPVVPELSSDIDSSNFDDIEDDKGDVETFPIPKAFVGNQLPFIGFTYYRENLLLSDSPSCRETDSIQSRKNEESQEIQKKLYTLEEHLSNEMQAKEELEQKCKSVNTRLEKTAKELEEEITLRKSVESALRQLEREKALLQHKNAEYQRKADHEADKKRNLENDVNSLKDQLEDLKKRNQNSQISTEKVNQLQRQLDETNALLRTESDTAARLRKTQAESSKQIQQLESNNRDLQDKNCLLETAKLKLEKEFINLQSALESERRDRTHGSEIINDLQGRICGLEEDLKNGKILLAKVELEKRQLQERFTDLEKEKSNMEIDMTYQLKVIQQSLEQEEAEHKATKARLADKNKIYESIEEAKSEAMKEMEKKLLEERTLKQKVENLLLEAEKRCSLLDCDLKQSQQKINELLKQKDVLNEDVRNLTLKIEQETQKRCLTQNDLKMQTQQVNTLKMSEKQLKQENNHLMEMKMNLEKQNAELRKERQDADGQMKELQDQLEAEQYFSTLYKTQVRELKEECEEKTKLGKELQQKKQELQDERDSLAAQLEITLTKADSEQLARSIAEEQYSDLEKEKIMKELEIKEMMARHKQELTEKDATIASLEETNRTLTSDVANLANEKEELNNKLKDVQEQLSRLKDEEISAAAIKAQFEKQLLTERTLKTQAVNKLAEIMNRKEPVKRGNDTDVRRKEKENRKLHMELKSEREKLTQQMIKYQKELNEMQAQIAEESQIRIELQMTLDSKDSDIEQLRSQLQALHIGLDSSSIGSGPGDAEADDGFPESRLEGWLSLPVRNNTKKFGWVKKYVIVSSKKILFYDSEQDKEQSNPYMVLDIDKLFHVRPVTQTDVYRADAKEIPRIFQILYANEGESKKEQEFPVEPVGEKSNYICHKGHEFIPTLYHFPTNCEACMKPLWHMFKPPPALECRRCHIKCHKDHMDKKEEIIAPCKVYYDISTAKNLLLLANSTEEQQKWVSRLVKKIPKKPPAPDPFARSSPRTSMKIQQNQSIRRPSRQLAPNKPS
protein kinases of the Z-LYTE panel (Homo sapiens, UniProt P51451), sequence (P51451 whole entry): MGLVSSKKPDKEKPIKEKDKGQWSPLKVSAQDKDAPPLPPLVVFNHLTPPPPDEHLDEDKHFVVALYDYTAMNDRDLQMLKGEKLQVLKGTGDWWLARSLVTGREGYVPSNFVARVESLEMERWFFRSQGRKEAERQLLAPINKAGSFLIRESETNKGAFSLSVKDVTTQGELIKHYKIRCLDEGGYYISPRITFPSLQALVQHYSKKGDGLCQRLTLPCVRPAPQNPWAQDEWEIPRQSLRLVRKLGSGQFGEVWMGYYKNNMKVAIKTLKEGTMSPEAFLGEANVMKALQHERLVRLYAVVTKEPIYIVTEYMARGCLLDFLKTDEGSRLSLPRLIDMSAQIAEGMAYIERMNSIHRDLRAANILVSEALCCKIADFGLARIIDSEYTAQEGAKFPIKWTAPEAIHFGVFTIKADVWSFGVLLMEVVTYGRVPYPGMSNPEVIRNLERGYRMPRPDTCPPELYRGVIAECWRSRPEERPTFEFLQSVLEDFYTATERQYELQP
protein kinases of the Z-LYTE panel (Homo sapiens, UniProt P07949, V804L), sequence (P07949 29-1114 V804L): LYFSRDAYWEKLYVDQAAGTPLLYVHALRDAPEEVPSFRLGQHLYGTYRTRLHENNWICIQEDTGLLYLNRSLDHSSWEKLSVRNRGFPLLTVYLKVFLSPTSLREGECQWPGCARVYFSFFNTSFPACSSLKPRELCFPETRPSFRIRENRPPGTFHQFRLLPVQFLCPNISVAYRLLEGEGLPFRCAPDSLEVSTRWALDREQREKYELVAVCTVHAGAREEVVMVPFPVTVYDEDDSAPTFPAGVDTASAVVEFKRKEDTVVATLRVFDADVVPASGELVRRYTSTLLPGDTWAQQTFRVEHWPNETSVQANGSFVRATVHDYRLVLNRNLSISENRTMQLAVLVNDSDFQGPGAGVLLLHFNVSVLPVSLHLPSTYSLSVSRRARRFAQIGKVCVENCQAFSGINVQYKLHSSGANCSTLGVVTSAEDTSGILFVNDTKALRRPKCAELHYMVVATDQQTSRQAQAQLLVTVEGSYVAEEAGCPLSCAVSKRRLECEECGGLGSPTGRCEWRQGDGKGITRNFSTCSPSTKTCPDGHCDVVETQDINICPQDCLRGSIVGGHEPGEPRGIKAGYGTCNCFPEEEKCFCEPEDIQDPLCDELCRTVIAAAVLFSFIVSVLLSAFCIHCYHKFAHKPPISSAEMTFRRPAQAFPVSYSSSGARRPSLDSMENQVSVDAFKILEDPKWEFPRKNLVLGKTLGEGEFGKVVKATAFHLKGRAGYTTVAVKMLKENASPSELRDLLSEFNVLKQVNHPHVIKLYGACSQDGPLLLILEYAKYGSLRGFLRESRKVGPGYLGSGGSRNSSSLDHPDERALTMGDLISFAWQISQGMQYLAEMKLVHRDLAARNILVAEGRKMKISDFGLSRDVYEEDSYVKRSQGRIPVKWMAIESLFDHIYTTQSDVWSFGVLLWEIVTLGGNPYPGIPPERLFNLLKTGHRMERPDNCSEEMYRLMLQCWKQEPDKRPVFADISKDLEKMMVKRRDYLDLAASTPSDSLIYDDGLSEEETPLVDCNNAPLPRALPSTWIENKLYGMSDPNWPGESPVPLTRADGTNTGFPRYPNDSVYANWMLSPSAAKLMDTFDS

For `CCN1CCN(c2ccc(Nc3cc(Nc4cccc5c4N(C(C)=O)CC5)ccn3)cc2)CC1` [Compound 1938], which inhibition at 1 µM ([1]; read-out: % Inhibition Point 1) is on record?
The inhibition at 1 µM was 1.58%.

And the inhibition at 1 µM ([1]; read-out: % Inhibition Point 2)?
The inhibition at 1 µM was 0.0356%.

What about the inhibition at 1 µM ([1]; read-out: % Inhibition mean) of the same compound?
The inhibition at 1 µM was 0.807%.

And the inhibition at 1 µM ([2]; read-out: % Inhibition Point 1)?
The inhibition at 1 µM was 15%.

What about the inhibition at 1 µM ([2]; read-out: % Inhibition Point 2) of the same compound?
The inhibition at 1 µM was 15%.

What about the inhibition at 1 µM ([2]; read-out: % Inhibition mean) of the same compound?
Its inhibition at 1 µM is 15%.

What about the inhibition at 1 µM ([3]; read-out: % Inhibition Point 1) of the same compound?
Its inhibition at 1 µM is 11%.

And the inhibition at 1 µM ([3]; read-out: % Inhibition Point 2)?
The inhibition at 1 µM was 11%.

And the inhibition at 1 µM ([3]; read-out: % Inhibition mean)?
Its inhibition at 1 µM is 11%.

And the inhibition at 1 µM ([4]; read-out: % Inhibition Point 1)?
The inhibition at 1 µM was 13%.

And the inhibition at 1 µM ([4]; read-out: % Inhibition Point 2)?
Its inhibition at 1 µM is 12%.

And the inhibition at 1 µM ([4]; read-out: % Inhibition mean)?
Its inhibition at 1 µM is 13%.

And the inhibition at 1 µM ([5]; read-out: % Inhibition Point 1)?
Its inhibition at 1 µM is 1.74%.

And the inhibition at 1 µM ([5]; read-out: % Inhibition Point 2)?
Its inhibition at 1 µM is 3.28%.

And the inhibition at 1 µM ([5]; read-out: % Inhibition mean)?
The inhibition at 1 µM was 2.51%.

What about the inhibition at 1 µM ([6]; read-out: % Inhibition Point 1) of the same compound?
Its inhibition at 1 µM is -0.368%.

What about the inhibition at 1 µM ([6]; read-out: % Inhibition Point 2) of the same compound?
The inhibition at 1 µM was 13%.

What about the inhibition at 1 µM ([6]; read-out: % Inhibition mean) of the same compound?
The inhibition at 1 µM was 6.48%.

And the inhibition at 1 µM ([7]; read-out: % Inhibition Point 1)?
Its inhibition at 1 µM is 16%.

What about the inhibition at 1 µM ([7]; read-out: % Inhibition Point 2) of the same compound?
Its inhibition at 1 µM is 6.35%.

And the inhibition at 1 µM ([7]; read-out: % Inhibition mean)?
Its inhibition at 1 µM is 11%.

What about the inhibition at 1 µM ([8]; read-out: % Inhibition Point 1) of the same compound?
The inhibition at 1 µM was 4.24%.

What about the inhibition at 1 µM ([8]; read-out: % Inhibition Point 2) of the same compound?
Its inhibition at 1 µM is 1.52%.

And the inhibition at 1 µM ([8]; read-out: % Inhibition mean)?
Its inhibition at 1 µM is 3%.

And the inhibition at 1 µM ([9]; read-out: % Inhibition Point 1)?
Its inhibition at 1 µM is 10%.

What about the inhibition at 1 µM ([9]; read-out: % Inhibition Point 2) of the same compound?
The inhibition at 1 µM was -1.75%.

And the inhibition at 1 µM ([9]; read-out: % Inhibition mean)?
The inhibition at 1 µM was 4%.

And the inhibition at 1 µM ([10]; read-out: % Inhibition Point 1)?
Its inhibition at 1 µM is 12%.

What about the inhibition at 1 µM ([10]; read-out: % Inhibition Point 2) of the same compound?
Its inhibition at 1 µM is 6.62%.

What about the inhibition at 1 µM ([10]; read-out: % Inhibition mean) of the same compound?
The inhibition at 1 µM was 9%.
